As usually defined, the IC50 is the concentration at which inhibition is half-maximal.

Where a SMILES comes first, the peptide text is derived from it. Bridges are numbered along the chain shown (N, C = ends). [ ]: non-standard residue; d: D form. The star is where a group is joined. ξ: configuration not given here. Phe(4-COOH) = N[C@@H](Cc1ccc(C(=O)O)cc1)C(=O)O; Bip = N[C@@H](Cc1ccc(-c2ccccc2)cc1)C(=O)O; hArg = N=C(N)NCCCC[C@H](N)C(=O)O; 4Pal = N[C@@H](Cc1ccncc1)C(=O)O; Cha = N[C@@H](CC1CCCCC1)C(=O)O; Ile(3ξ) = CCC(C)[C@H](N)C(=O)O; Thr(3ξ) = CC(O)[C@H](N)C(=O)O; Carboxymethyl = O=C(O)C*; NMeA = CN[C@@H](C)C(=O)O; Orn = NCCC[C@H](N)C(=O)O; Aun = NCCCCCCCCCCC(=O)O; Dab = NCC[C@H](N)C(=O)O; AEEA = NCCOCCOCC(=O)O; Sar = CNCC(=O)O

In this assay the target is T1, PD-1/PD-L1 interaction (PE-labeled human PD-L1-Ig binding to Jurkat cell line over-expressing human PD-1) (Homo sapiens, UniProt Q15116).
T1 construct: expressed in transfected cells; host or cells: Jurkat
T1 sequence (Q15116 25-288): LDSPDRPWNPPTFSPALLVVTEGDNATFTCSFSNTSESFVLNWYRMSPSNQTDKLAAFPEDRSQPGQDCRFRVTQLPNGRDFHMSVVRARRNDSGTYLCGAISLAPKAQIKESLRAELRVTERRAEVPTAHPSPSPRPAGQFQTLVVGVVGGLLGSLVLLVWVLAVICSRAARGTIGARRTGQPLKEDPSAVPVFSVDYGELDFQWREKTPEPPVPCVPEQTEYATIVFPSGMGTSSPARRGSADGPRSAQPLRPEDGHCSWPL
Description: Jurkat-PD-1 Cell Binding High-Content Screening Assay (CBA). Particulars: Jurkat-hPD-1 cells, PE-labeled PD-L1-Ig 20 nM final; read-out: Jurkat HPD1 PDL1 IC50. Summed up: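 Jurkat cells overexpressing human PD-1 (8×10^3/well, DMEM + 10% FCS) preincubated with compound 2 h at 37 °C, then PE-labelled human PD-L1-Ig (20 nM final) for 1 h. Cells fixed in paraformaldehyde with Hoechst 33342; bound PD-L1 quantified by high-content imaging.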
As to `CC(C)C[C@H]1NC(=O)[C@H](C)N(C)C(=O)[C@H](C(C)C)NC(=O)[C@H](Cc2ccc(-c3ccccc3)cc2)NC(=O)[C@H](C(C)C)NC(=O)[C@H](Cc2c[nH]c3ccccc23)NC(=O)[C@H](CC(=O)O)NC(=O)[C@H](Cc2ccc(C(=O)O)cc2)NC(=O)[C@H](Cc2ccc(OCC(=O)O)cc2)NC(=O)CSC[C@@H](C(=O)N[C@@H](CCCCN)C(=O)NCCOCCOCC(=O)NCCCCCCCCCCC(=O)O)NC(=O)[C@H](CO)NC(=O)[C@H](C(C)C)NC(=O)[C@H](CC2CCCCC2)NC(=O)[C@H](CCN)NC1=O` [Example 2101] ({CH2CO}-Y(Carboxymethyl)[Phe(4-COOH)]DWV[Bip]V[NMeA][dL][Dab][Cha]VSCK[AEEA][Aun]-OH; thioether N-14), the IC50 worked out at 14.6 nM.
To `CC(C)[C@@H]1NC(=O)[C@H](CC2CCCCC2)NC(=O)[C@H](CCN)NC(=O)CN(C)C(=O)[C@H](C)N(C)C(=O)[C@H](C(C)C)NC(=O)[C@H](Cc2ccc(-c3ccccc3)cc2)NC(=O)[C@H](C(C)C)NC(=O)[C@H](Cc2c[nH]c3ccccc23)NC(=O)[C@H](CC(=O)O)NC(=O)[C@H](Cc2ccncc2)NC(=O)[C@H](Cc2ccc(OCC(=O)O)cc2)NC(=O)CSC[C@@H](C(=O)N[C@@H](CCCCN)C(=O)NCCOCCOCC(=O)NCCCCCCCCCCC(=O)O)NC(=O)[C@H](CO)NC1=O` [Example 2102] ({CH2CO}-Y(Carboxymethyl)[4Pal]DWV[Bip]V[NMeA][Sar][Dab][Cha]VSCK[AEEA][Aun]-OH; thioether N-14) belongs 337 nM; to `CC(C)C[C@H]1NC(=O)[C@H](C)N(C)C(=O)[C@H](C(C)C)NC(=O)[C@H](Cc2ccc(-c3ccccc3)cc2)NC(=O)[C@H](C(C)C)NC(=O)[C@H](Cc2c[nH]c3ccccc23)NC(=O)[C@H](CC(=O)O)NC(=O)[C@H](CCCCNC(=N)N)NC(=O)[C@H](Cc2ccc(OCC(=O)O)cc2)NC(=O)CSC[C@@H](C(=O)N[C@@H](CCCCN)C(=O)NCCOCCOCC(=O)NCCCCCCCCCCC(=O)O)NC(=O)[C@H](CO)NC(=O)[C@H](C(C)C)NC(=O)[C@H](CC2CCCCC2)NC(=O)[C@H](CCN)NC1=O` [Example 2103] ({CH2CO}-Y(Carboxymethyl)[hArg]DWV[Bip]V[NMeA][dL][Dab][Cha]VSCK[AEEA][Aun]-OH; thioether N-14), 29.6 nM.
Turning to `CCC(C)[C@@H]1NC(=O)[C@H](Cc2ccc(-c3ccccc3)cc2)NC(=O)[C@H](C(C)C)NC(=O)[C@H](Cc2c[nH]c3ccccc23)NC(=O)[C@H](CC(=O)O)NC(=O)[C@H](Cc2ccc(OCC(=O)O)cc2)NC(=O)[C@H](Cc2ccncc2)NC(=O)CSC[C@@H](C(=O)N[C@@H](CCCN)C(=O)NCCOCCOCC(=O)NCCCCCCCCCCC(=O)O)NC(=O)[C@H](C(C)O)NC(=O)[C@H](C(C)C)NC(=O)[C@H](CC2CCCCC2)NC(=O)[C@H](CCN)NC(=O)[C@@H](CC(C)C)NC(=O)[C@H](C)N(C)C1=O` (stereo partly drawn) [Example 2104] ({CH2CO}-[4Pal]Y(Carboxymethyl)DWV[Bip][Ile(3ξ)][NMeA][dL][Dab][Cha]V[Thr(3ξ)]C[Orn][AEEA][Aun]-OH; thioether N-14), the IC50 was determined as 14.1 nM.
Under `CCC(C)[C@@H]1NC(=O)[C@H](Cc2ccc(-c3ccccc3)cc2)NC(=O)[C@H](C(C)C)NC(=O)[C@H](Cc2c[nH]c3ccccc23)NC(=O)[C@H](CC(=O)O)NC(=O)[C@H](Cc2ccc(OCC(=O)O)cc2)NC(=O)[C@H](Cc2ccncc2)NC(=O)CSC[C@@H](C(=O)N[C@@H](CCCCN)C(=O)NCCOCCOCC(=O)NCCCCCCCCCCC(=O)O)NC(=O)[C@H](C(C)O)NC(=O)[C@H](C(C)C)NC(=O)[C@H](CC2CCCCC2)NC(=O)[C@H](CCN)NC(=O)[C@@H](CC(C)C)NC(=O)[C@H](C)N(C)C1=O` (stereo partly drawn) [Example 2105] ({CH2CO}-[4Pal]Y(Carboxymethyl)DWV[Bip][Ile(3ξ)][NMeA][dL][Dab][Cha]V[Thr(3ξ)]CK[AEEA][Aun]-OH; thioether N-14) stands 15 nM; under `CCC(C)[C@@H]1NC(=O)[C@H](Cc2ccc(-c3ccccc3)cc2)NC(=O)[C@H](C(C)C)NC(=O)[C@H](Cc2c[nH]c3ccccc23)NC(=O)[C@H](CC(=O)O)NC(=O)[C@H](Cc2ccncc2)NC(=O)[C@H](Cc2ccc(OCC(=O)O)cc2)NC(=O)CSC[C@@H](C(=O)N[C@@H](CCCN)C(=O)NCCOCCOCC(=O)NCCCCCCCCCCC(=O)O)NC(=O)[C@H](C(C)O)NC(=O)[C@H](C(C)C)NC(=O)[C@H](CC2CCCCC2)NC(=O)[C@H](CCN)NC(=O)[C@@H](CC(C)C)NC(=O)[C@H](C)N(C)C1=O` (stereo partly drawn) [Example 2106] ({CH2CO}-Y(Carboxymethyl)[4Pal]DWV[Bip][Ile(3ξ)][NMeA][dL][Dab][Cha]V[Thr(3ξ)]C[Orn][AEEA][Aun]-OH; thioether N-14), 8 nM.
As to `CCC(C)[C@@H]1NC(=O)[C@H](Cc2ccc(-c3ccccc3)cc2)NC(=O)[C@H](C(C)C)NC(=O)[C@H](Cc2c[nH]c3ccccc23)NC(=O)[C@H](CC(=O)O)NC(=O)[C@H](Cc2ccncc2)NC(=O)[C@H](Cc2ccc(OCC(=O)O)cc2)NC(=O)CSC[C@@H](C(=O)N[C@@H](CCCCN)C(=O)NCCOCCOCC(=O)NCCCCCCCCCCC(=O)O)NC(=O)[C@H](C(C)O)NC(=O)[C@H](C(C)C)NC(=O)[C@H](CC2CCCCC2)NC(=O)[C@H](CCN)NC(=O)[C@@H](CC(C)C)NC(=O)[C@H](C)N(C)C1=O` (stereo partly drawn) [Example 2107] ({CH2CO}-Y(Carboxymethyl)[4Pal]DWV[Bip][Ile(3ξ)][NMeA][dL][Dab][Cha]V[Thr(3ξ)]CK[AEEA][Aun]-OH; thioether N-14), the IC50 was determined as 21.9 nM.
Consider `CC(C)C[C@H]1NC(=O)[C@H](C)N(C)C(=O)[C@H](CCC(=O)O)NC(=O)[C@H](Cc2ccc(-c3ccccc3)cc2)NC(=O)[C@H](C(C)C)NC(=O)[C@H](Cc2c[nH]c3ccccc23)NC(=O)[C@H](CC(=O)O)NC(=O)[C@H](Cc2ccc(C(=O)O)cc2)NC(=O)[C@H](Cc2ccc(OCC(=O)O)cc2)NC(=O)CSC[C@@H](C(=O)N[C@@H](CCCCN)C(=O)NCCOCCOCC(=O)NCCCCCCCCCCC(=O)O)NC(=O)[C@H](C(C)O)NC(=O)[C@H](C(C)C)NC(=O)[C@H](CC2CCCCC2)NC(=O)[C@H](CCN)NC1=O` (stereo partly drawn) [Example 2108] ({CH2CO}-Y(Carboxymethyl)[Phe(4-COOH)]DWV[Bip]E[NMeA][dL][Dab][Cha]V[Thr(3ξ)]CK[AEEA][Aun]-OH; thioether N-14), for which the IC50 was 24.4 nM.
To `CC(C)C[C@H]1NC(=O)[C@H](C)N(C)C(=O)[C@H](C(C)C)NC(=O)[C@H](Cc2ccc(-c3ccccc3)cc2)NC(=O)[C@H](C(C)C)NC(=O)[C@H](Cc2c[nH]c3ccccc23)NC(=O)[C@H](CC(=O)O)NC(=O)[C@H](Cc2ccc(C(=O)O)cc2)NC(=O)[C@H](Cc2ccc(OCC(=O)O)cc2)NC(=O)CSC[C@@H](C(=O)N[C@@H](CCCCN)C(=O)NCCOCCOCC(=O)NCCCCCCCCCCC(=O)O)NC(=O)[C@H](C(C)O)NC(=O)[C@H](C(C)C)NC(=O)[C@H](CC2CCCCC2)NC(=O)[C@H](CCN)NC1=O` (stereo partly drawn) [Example 2109] ({CH2CO}-Y(Carboxymethyl)[Phe(4-COOH)]DWV[Bip]V[NMeA][dL][Dab][Cha]V[Thr(3ξ)]CK[AEEA][Aun]-OH; thioether N-14) belongs 10.8 nM.

The values above are taken from patent US20260070945A1, “MACROCYCLIC IMMUNOMODULATORS” (Bristol-Myers Squibb Company, priority 2022, published 2026).
